Experimental data published in patent US8097624B2, “Cycloalkyl derivatives of 3-hydroxy-4-pyridinones” (Apotex Inc., priority 2006, dated 2012).
Where a name gives a salt, the structure may show the parent alone. Read-outs that look alike come from different tables or passages of the source.

Columns and labels:
[1] = Distribution coefficient determination (D7.4), 1-octanol / MOPS buffer; assay type: physicochemical; conditions: 1-octanol / MOPS buffer pH 7.4
Protocol: MOPS buffer (50 mM, pH=7.4) and 1-octanol were used as the aqueous phase and the organic phase, respectively, for distribution coefficient determinations. The MOPS buffer and 1-octanol were pre-saturated with each other before use.
In a typical experiment, an organic stock solution of Apo6618 (1-cyclopropyl-3-hydroxy-6-methyl-4-oxo-1,4-dihydro-pyridine-2-carboxylic acid cyclopropylamide) was prepared by weighing out 0.50 mg of the compound into a 10-mL volumetric flask and bringing to volume with 1-octanol. The solution was then sonicated for 60 minutes so that the sample could dissolve completely. The concentration of the stock solution was calculated as C^0org=2.0×10^−4 M. The organic standard solution of Apo6618 with 2.0×10^−5 M was prepared in a 10-mL volumetric flask by 10 times dilution of the stock solution with 1-octanol. The sample solution was prepared in a 10-mL volumetric flask. The stock sample solution (3 ml) was pipetted into the flask followed by the addition of MOPS buffer (3 ml). The standard and sample solutions were then vortexed for 2 hours. After vortexing, the solutions were transferred to test tubes and centrifuged at 4000 rpm for 15 minutes. UV-Vis spectra were recorded for the standard solution and the organic (top) phase of the sample solution at 22° C. The distribution coefficient, D7.4, was calculated using the following equation: D7.4=[Aorg/(C^0orgεorg−Aorg)]×(Vaqu/Vorg)
Where εorg=the molar extinction coefficient of the peak wavelength (λmax) obtained from the UV-Vis spectrum of the organic standard solution; Aorg=absorbance of the organic phase in the sample solution at the same λmax; C^0org=the concentration of the stock solution; Vaqu=the volume of MOPS buffer in the sample solution; Vorg=the volume of the stock solution in the sample solution.

[2] = pKa determination by potentiometric or spectrophotometric titration; assay type: physicochemical; conditions: titration in 0.1 M NaCl at 22° C.
Protocol: The pKa values of ligands were determined by potentiometric titration when a ligand concentration greater than 1×10^−2 M in water could be prepared. In a typical experiment, the sample solution (2.67×10^−2 M) was prepared by the following method: Apo6619 (92.6 mg) was weighed into a 25-ml beaker, followed by the addition of 0.1 M NaCl (15 ml). The mixture was sonicated for 10 minutes to give a clear colorless solution. Nitrogen gas was then allowed to bubble through the solution. 1.000 N Hydrochloric acid (624 μl, 1.5 equivalent) was added to the solution to give pH 1.88. The solution was allowed to equilibrate at 22° C. for 60 minutes.
The solution was then titrated against 1.000 N NaOH at 22° C. to reach pH 11.8. For each addition of base, the solution was allowed to equilibrate until a constant pH reading was reached. The volume of the base added and the pH reading were recorded for each measurement. 137 measurements were taken to finish the experiment.
The data set of pH vs. base volume was analyzed using Hyperquad 2000 (Version 2.1, Peter Gans, University of Leeds).
The pKa values of ligands can be determined by spectrophotometric titration when both the conjugated acid and base absorb in the UV-Visible region. In a typical experiment, the sample solution was prepared by the following method: Apo6617 (0.792 mg) was weighed into an 80-ml beaker, followed by the addition of 0.1 M NaCl (50 ml). The mixture was sonicated for 5 minutes to give a clear colorless solution. Nitrogen gas was allowed to bubble through the solution. 1.000 N NaOH (50 μl) was added to give pH 10.9. The solution was allowed to equilibrate at 22° C. for 1 hour. A sipper system was used for the circulation of the sample solution between the beaker and the flow cell.
The sample solution was titrated against standard hydrochloric acid solutions at 22° C. to reach pH 1.40. After each addition of acid the solution was allowed to equilibrate until a constant pH reading was reached. The pH and the UV-Vis spectrum were recorded for each measurement. The peak wavelengths of the deprotonated species (L^−), the neutral species (LH), and the protonated species (LH2^+) were 314 nm, 281 nm, and 249 nm, respectively. In the region of pH>6, after each addition of acid there was a slight decrease in the absorbance at 314 nm and a slight increase at 281 nm in each spectrum, whereas in the region of pH<5, after each addition of acid there was a slight decrease in the absorbance at 281 nm and a slight increase at 249 nm in each spectrum. The solution was titrated until there was no obvious change in the spectra after several subsequent additions of acid. 116 measurements were taken to finish the experiment.
The resulting data set was then analyzed using pHAB (Peter Gans, University of Leeds).

[3] = Metal complexation constants, Fe system (spectrophotometric titration; pM by Hyss); assay type: binding; conditions: for Log β3: Fe(III) overall complexation constant; for pFe^3+: total iron 10^−6 M, ligand 10^−5 M, pH 7.4, calculated from experimental pKa and complexation constants
Protocol: Compounds of this invention are designed to improve properties to known deferiprone analogues. […]. The definition of pFe^3+ used herein is the concentration of ferric ion in solution when the total amount of iron equals 10^−6 M and the concentration of ligand is 10^−5 M and pH is 7.4. It is calculated using experimental determined pKa and metal complexation constants using Hyperquad software (Version 2.1, Peter Gans, University of Leeds). The lowering of the pKa value of the C3 phenolic OH to less than 8.8 ensures that a higher pFe^3+ value when combined with a favorable complexation constant β3. The concept of complexation is detailed below.
The stepwise and overall complexation constants of a bidentate ligand such as 3-hydroxy-4-pyridinone follow: Fe(III)+Ligand→Fe[Ligand]1K1 Fe[Ligand]1+Ligand→Fe[Ligand]2K2 Fe[Ligand]2+Ligand→Fe[Ligand]3K3 Complexation constant β3=K1.K2.K3
Stepwise formation constants for M^n+-ligand systems were determined by spectrophotometric titration when metal complexes have a strong absorbance in the visible region due to ligand to metal charge transfer. In a typical experiment, the sample solution was prepared according to the following method: Apo6619 (10.7 mg) was weighed into an 80-ml beaker, followed by the addition of 0.1 M NaCl (50 ml). The mixture was sonicated for 10 minutes to give a clear colorless solution. Iron stock solution (atomic absorption standard, Aldrich, 496 μl, 8.93E-06 moles) was pipetted into the solution followed by the addition of 1.000 N NaOH (137 μl). The molar ratio between the total iron and the total Apo6619 was 1:5.4. The mixture was allowed to equilibrate at room temperature overnight. Nitrogen was allowed to bubble through the solution. 1.000 N Hydrochloric acid (3 ml) was then added to the solution to give pH 1.5. The solution was allowed to equilibrate at 22° C. for 3 hours.
A sipper system was used for the circulation of the sample solution between the beaker and the flow cell.
The sample solution was titrated against standard NaOH solutions at 22° C. to reach pH 6.89. After each addition of base the solution was allowed to equilibrate until a constant pH reading was reached. The pH and the UV-Vis spectrum were recorded for each measurement. For each measurement enough base was added so that there was a slight increase in the absorbance of the spectrum. The solution was titrated until there was no obvious increase in the spectra after several subsequent additions of base. Altogether 64 measurements were taken to finish the experiment.
[…]; pM^n+ is defined as −log [M(H2O)m]^n+ at physiological conditions, i.e.: pH 7.4, a ligand concentration of 10 μM, and a metal concentration of 1 μM.
To calculate pM^n+ for a MLn system, βn and pKa values are needed (βn are the formation constants for M^n++n L^− ? MLn; pKa are the equilibrium constants for L^−+n H^+ ? LHn^(n−1)+). The pM^n+ can be calculated by using Hyss software (Hyperquad Stimulation and Speciation software: HYSS2© 2000 Protonic Sofware).

[4] = U.S. Pat. No. 6,335,353; cited from earlier work
[5] = Redox potentials of iron complexes by cyclic voltammetry; assay type: physicochemical; conditions: glassy carbon working electrode, 2.0 mM, pH 7.4; for E1/2 / Ep^ox / Ep^red: vs Ag/AgCl
[6] = cited from earlier work

| Compound | D7.4 [1] | pKas (higher value, phenolic C3 OH) [2] | pKas (lower value, LH2+) [2] | Log β3 [3] | pFe^3+ [3] | also measured |
| --- | --- | --- | --- | --- | --- | --- |
| Cc1cc(=O)c(O)c(C(=O)NC2CC2)n1C1CC1 [Apo6618, 1-Cyclopropyl-3-hydroxy-6-methyl-4-oxo-1,4-dihydro-pyridine-2-carboxylic Acid Cyclopropylamide] | 0.331 | 8.6 | 2.5 | 33.6 | 20.5 |  |
| Cc1cc(=O)c(O)c(C(=O)NC2CCCC2)n1C [Apo6620, N-cyclopentyl-3-hydroxy-1,6-dimethyl-4-oxo-1,4-dihydro-pyridine-2-carboxamide] | 0.78 | 8.7 | 2.7 | 33.8 | 20.3 | melting point: 289.3 °C (dec.) |
| Cc1cc(=O)c(O)c(C(=O)NC2CCCCC2)n1C [Apo6621, 3-Hydroxy-1,6-dimethyl-4-oxo-1,4-dihydro-pyridine-2-carboxylic Acid Cyclohexylamide] | 2.2 | 8.7 | 2.5 | 34.3 | 20.9 |  |
| Cc1cc(=O)c(O)c(C(=O)NC2CCC2)n1C [Apo6622, N-cyclobutyl-3-hydroxy-1,6-dimethyl-4-oxo-1,4-dihydropyridine-2-carboxamide] | 0.357 | 8.6 | 2.8 | 33.9 | 20.8 |  |
| CNC(=O)c1c(O)c(=O)cc(C)n1C [CP502, 1,6-Dimethyl-3-hydroxy-4(1H)-pyridinone-2-carboxy-(N-methyl)-amide hydrochloride, reference compound] | 0.04 | 8.5 | 2.7 | 33.6 | 20.9 | O-glucuronidation at the C3 oxygen [4]: effectively blocked the O-glucuronidation |
| CC(=O)N([O-])CCCCCNC(=O)CCC(=O)N([O-])CCCCCNC(=O)CCC(=O)N([O-])CCCCCN.[Fe+3] [Fe(DFO)] |  |  |  |  |  | ΔEp [5]: 112 mV; E1/2 [5]: −698 mV; Ep^ox [5]: −642 mV; Ep^red [5]: −754 mV; E1/2 literature value ([6]; vs Ag/AgCl, Crumbliss et al, Inorganic Chemistry 2003): −688 mV |
| Cc1c([O-])c(=O)ccn1C.Cc1c([O-])c(=O)ccn1C.Cc1c([O-])c(=O)ccn1C.[Fe+3] [Fe(deferiprone)3] |  |  |  |  |  | ΔEp [5]: 107 mV; E1/2 [5]: −834 mV; Ep^ox [5]: −780 mV; Ep^red [5]: −887 mV |
| Fe-transferrin: iron bound to transferrin in human blood |  |  |  |  |  | E1/2 ([6]; vs. Ag/AgCl): −720 mv; E1/2 ([6]; vs. NHE): −500 mv |
